According to patent publication US6872712B1, “Cyclic glycerophosphates and analogs thereof” (Yeda Research and Development Co. Ltd., priority 1999, dated 2005):

Key:
cell lysate phosphatases = assay: Inhibition of phosphatase activity of cell lysate (PNPP substrate); format: biochemical; conditions: 50 μM, 50 mM PNPP, 90 minutes at 37° C., pH 7.4
Description: Inhibition of phosphatase activity of cell lysate by cyclic phosphates was assayed in 1.0 ml of 50 mM Tris-HCl buffer, pH 7.4, containing 50 mM p-nitrophenyl phosphate, PNPP, as a substrate. Reaction was initiated by the addition of crude cell lysate (100 μg/ml final protein concentration) and terminated after 90 minutes at 37° C. by an addition of 50 μl of 1M NaOH. […] Assays were conducted under the same conditions as above in the presence of 50 μM cyclic phosphate. The enzyme activity in the absence of inhibitor was taken as 100% activity.

CHO cells = assay: Uptake of 32P labeled 1,3-cPP by CHO cells; format: cell-based, Chinese hamster; conditions: intact CHO cells, increasing amounts of unlabeled compound
Description: After 2 washings with PBS the cells were disintegrated in 1 M NaOH and radioactivity was scored with a β counter. The insert presents the magnified uptake profile for short incubations (up to 2 minutes) where the intercept (0 time incubation) corresponded to approximately 3×10^6 molecules per cell, while at equilibrium (above 2 hours incubation) incorporation corresponded to approximately 2×10^8 molecules per cell.

[1] = test system: tyrosine phosphorylated proteins in CHO cells; assay: Tyrosine phosphorylation in CHO cells (Western blot with anti-phosphotyrosine antibodies); format: cell-based, Chinese hamster; conditions: CHO cells, 1, 3, 5 or 10 mins at 37° C., 1 μM or 2 μM, monoclonal antibodies (FIG. 2)
Description: Chinese hamster ovary (CHO) cells (Puck, 1985; Gottesman, 1987) and NIH-3T3 cells (NIH), were used in the following experiments. CHO cells were grown at 37° C. in a humidified 5% CO2 atmosphere in 60×15 mm Petri dishes (Falcon) containing F12 medium supplemented with 10% fetal calf serum (FCS) and 2 mM glutamine. When reaching near confluence, the cells were placed under overnight starvation by replacing the medium to F12+2 mM glutamine with 0.1% FCS. The stimulation experiments were performed with cells which were under starvation for 12-18 hours.
(§1) The cyclic phosphates 1,3 cGP, 1,3 cPP, 1,2 cGP, 1,2 cPP, P-1,3 cGP and P-1,3 cPP and the controls αGP and βGP were dissolved in HBSS, or methanol to form stocks of 1 mM or 10 mM. They were diluted into the cell culture medium to a final concentration of up to 20 μM. At the assigned stimulation time (0.5-20 min.) the medium was aspirated under vacuum and the cells were washed 3 times with cold (4° C.) phosphate buffered saline (PBS). […] The protein concentration in each sample, as evaluated by the Bradford assay, was in the range of 1-1.5 mg/ml. […] Bound antibodies were detected by horseradish peroxidase-conjugated anti-rabbit antibodies (Transduction Laboratories, Lexington Ky.) after 2 hours incubation at room temperature, using the conventional ECL detection method. […]

K562 leukemia cells = assay: Differentiation of K562 leukemia cells (hemoglobin, benzidine assay); format: cell-based; conditions: 4 days, 10 μM 1,3 cPP in combination with 1.5 mM sodium butyrate (FIG. 13)
Description: K562 leukemia cells are able to differentiate to the erythroid lineage. Such differentiation is characterized by the cells' ability to synthesize hemoglobin. Sodium butyrate is a known differentiation agent of such leukemia cells.
In this example, the ability of 1,3 cPP, α-GP and sodium butyrate alone and n combination to cause differentiation of K562 cells was evaluated using the known benzidine assay.
K562 cells were incubated for a period of 4 days with the following: • (a) growth medium (control); • (b) 10 μM of 1,3 cPP; • (c) […] of α-GP; • (d) 1.5 mM of sodium butyrate; • (e) a combination of sodium butyrate and 1,3 cPP; and • (f) sodium butyrate and α-GP.

[2] = test system: T47D human breast cancer cells; assay: Proliferation of T47D human breast cancer cells (3H-thymidine); format: cell-based; conditions: 50 μM 1,3-cPP salt, days 1, 2 and 3 (P 0.0370, 0.0192, 0.0238) (FIG. 12)
Description: In this experiment, 8×10^4 T47D (clone 11) human breast cancer cells were plated in sets of 6 in 96 well microtiter plates and titrated concentrations (1-50 μM final concentrations) of 1,3-cPP salt in complete medium were added to the cultures at the beginning of the experiment only in a total volume of 200 μl per well. Plates were incubated at 37° C. over the course of 5 days, where 1 plate was pulsed with ^3H-thymidine (Sigma) overnight each day and subsequently frozen. All the plates were harvested together (Packard Micromate 196 Harvester, Merriden, Conn.) and scored on a 96 well plate reader (Packard Matrix 96, Merriden, Conn.).

[3] = Stability of cyclic phosphates in cell lysates (TLC); conditions: 10 mg/ml in PBS mixed with CHO or NIH-3T3 cell lysate (0.1 mg/ml protein), 37°, up to 24 hours
Description: This distinct difference allowed the qualitative detection of hydrolysis of the cyclic phosphate.

[4] = Stability of cyclic phosphates in PBS / aqueous solution (TLC); format: physicochemical; conditions: 10 mg/ml in PBS, 37°, up to 24 hours
perforated CHO cells = assay: Intracellular binding in perforated CHO cells (displacement of 1,3-cP32P); design: species or system Chinese hamster; conditions: 20 μM 1,3-cP32P, 5 minutes at 4° C., increasing amounts of competitor (FIG. 9)
Description: Radioactivity was scored after 2 washings with PBS at 4° C. as above. […] In this set of experiments the number of displaceable (i.e. specifically bound) ligands was estimated to be in the range of 10^7-10^8 per cell.

[5] = test system: tyrosine phosphorylated proteins in NIH 3T3 cells; assay: Tyrosine phosphorylation in NIH 3T3 cells (Western blot with anti-phosphotyrosine antibodies); format: cell-based; conditions: 1 min or 5 mins at 37° C., 0.5, 1, 2 or 4 μM, monoclonal antibodies (FIG. 3)
Description: NIH-3T3 cells were grown under similar conditions in 1640 Eagle medium at 10% bovine calf serum plus 2 mM glutamine.
as §1, with “(PBS). The cells were then freeze-thawed 3 times with liquid nitrogen in 0.5 ml of a lysis buffer of PBS containing 1 mM phenylmethylsulfonyl fluoride, a cocktail of protease inhibitors (aprotinin, leuproptin, pepstatin A, phenanthroline, benzamidine HCl each at a concentration of 10 μg/ml) and a cocktail of phosphatase inhibitors (80 mM β-glycerophosphate, 2 mM EGTA and 50 μM Na3VO4), and then scraped off. The lysate was then vortexed and centrifuged for 2 minutes at 12.000 g.” for “(PBS).”

insulin receptor = assay: Tyrosine phosphorylation of the insulin receptor in CHO-T cells; format: cell-based; conditions: 20 mins, 0.1 μM 1,3 cPP in combination with 0.1 nM insulin (FIG. 10)
Description: Group 4: 0.1 μM 1,3, cPP only.
Tyrosine phosphorylation was determined using anti-phosphotyrosine antibody (as described above).

For O=P1(O)OCCCO1 [1,3 cPP, 1,3 cyclic propanediol phosphate], the “inhibition of cell lysate phosphatase activity” value (cell lysate phosphatases) was 15-20%, the “effect of unlabeled competitor on the uptake profile of 1,3-cP32P” value (CHO cells) was “remained essentially unaltered” and the “level of tyrosine phosphorylated proteins” value [1] was “phosphorylation was most markedly seen in the band(s) having a molecular weight of about 35 kD and about 45 kD”. For the same molecule, the “synthesis of hemoglobin relative to sodium butyrate alone” value (K562 leukemia cells) was 3 fold, the “proliferation versus cells in growth medium only” value [2] was “significant inhibition” and the “hydrolysis to the linear form by cell lysate” value [3] was “No hydrolysis”. The “hydrolysis to the linear form in PBS” value [4] was “No hydrolysis”, the “displacement of 1,3-cP32P in perforated CHO cells” value (perforated CHO cells) was “specific binding” and the “level of tyrosine phosphorylated proteins” value [5] was “augmented tyrosine phosphorylation”. The “phosphorylation of insulin receptor (117 kD and 200 kD bands) relative to insulin only” value (insulin receptor) was “almost doubled”.
